Measurements reported in US20250186604A1, “ANTI-PSMA ANTIBODY CONJUGATES” (ADC THERAPEUTICS SA, priority 2023, published 2025).
Starred links: 1 amine or outer side, 2 acyl side, 3 side chain; linkers in the order of their positions; H or OH if unused. Non-standard residues stand in square brackets, D forms with d. Residues, ends and D or L forms follow the SMILES beside them. *: point of attachment. Exatecan = CC[C@@]1(O)C(=O)OCc2c1cc1n(c2=O)Cc2c-1nc1cc(F)c(C)c3c1c2[C@@H](N*)CC3; Propanoyl(3-maleimido) = O=C1C=CC(=O)N1CCC(=O)*; PABC = O=C(OCc1ccc(N[*:1])cc1)[*:2]

What was measured:
[1] = RP-HPLC retention time correlated with hydrophobicity; type: physicochemical; conditions: high Rt = hydrophobic, low Rt = hydrophilic
Protocol: • Column: Phenomenex Gemini NX 5 m, C18, 110Å, 150×4.6 mm • Instrument: Shimadzu LC-2030 • Mobile phase: A) water (0.05% TFA), B) acetonitrile (0.05% TFA) • Gradient: 20-70% B over 15 min, flow 1.0 mL/min
A correlation study was also carried out using Reverse-Phase HPLC (RP-HPLC). The two constructs were injected in RP-HPLC and retention times (Rt) correlated with hydrophobicity—i.e., high Rt was associated to hydrophobic constructs whereas low Rt to hydrophilic ones.

[2] = Aggregation during conjugation to a test antibody (% monomer by SEC); type: physicochemical; conditions: drug linker conjugated to a test antibody
Protocol: 2 mg of a test monoclonal antibody at 8.87 mg/ml was pH adjusted with 5% 0.5 M Tris, 0.025 M EDTA, pH 8.5 and reduced with 2.3 mol. eq. TCEP and then conjugated with 6mol. eq. drug linker. After buffer exchange into 30 mM Histidine, 175 mM Sucrose pH 6.0/PBS, the drug to antibody ratio (DAR) was by HIC/LC-MS and % Monomer by size exclusion chromatography (SEC). Percentage monomer values of 95% or greater are assessed as low aggregation.
Aggregation levels were assessed during the conjugation to a test antibody. Conjugation was performed as described above for ADC-1.
During conjugation, we are ideally targeting a monomer content or percentage monomer of 95% or above. Low percentage monomer values usually translate to a higher degree of aggregation. One could therefore agree that percentage monomer values of 95% or higher mean very low levels of aggregation or none, whereas values below this threshold often translate to higher levels of aggregation.

a variety of cell lines = conditions: versus SN38; cited from earlier work
topo I/DNA complex = target: T1, topo I/DNA complex (Homo sapiens, UniProt P11387); conditions: versus SN38 (the active metabolite of irinotecan); cited from earlier work
T1 sequence (P11387 1-765): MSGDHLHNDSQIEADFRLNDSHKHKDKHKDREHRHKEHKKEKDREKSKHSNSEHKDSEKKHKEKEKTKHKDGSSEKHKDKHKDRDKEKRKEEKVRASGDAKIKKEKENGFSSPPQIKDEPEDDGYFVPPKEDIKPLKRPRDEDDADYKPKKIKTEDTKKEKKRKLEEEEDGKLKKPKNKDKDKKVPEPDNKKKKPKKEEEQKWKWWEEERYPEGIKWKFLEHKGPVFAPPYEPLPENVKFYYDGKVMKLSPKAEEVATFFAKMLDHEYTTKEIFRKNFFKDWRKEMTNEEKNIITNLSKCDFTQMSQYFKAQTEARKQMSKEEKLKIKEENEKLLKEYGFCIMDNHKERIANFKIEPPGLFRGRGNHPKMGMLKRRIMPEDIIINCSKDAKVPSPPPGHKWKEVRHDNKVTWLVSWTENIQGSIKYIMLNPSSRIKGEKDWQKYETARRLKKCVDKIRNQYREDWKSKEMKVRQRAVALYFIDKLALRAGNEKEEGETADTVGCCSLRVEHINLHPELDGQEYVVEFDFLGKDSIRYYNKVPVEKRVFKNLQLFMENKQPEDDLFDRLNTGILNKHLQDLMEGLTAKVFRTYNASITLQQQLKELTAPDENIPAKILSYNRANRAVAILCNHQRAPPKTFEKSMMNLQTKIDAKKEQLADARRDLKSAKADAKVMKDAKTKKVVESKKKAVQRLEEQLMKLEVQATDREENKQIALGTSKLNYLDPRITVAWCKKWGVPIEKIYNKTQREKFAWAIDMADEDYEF

Compound | Rt [1] [min] | Aggregation (% monomer) ([2]; SEC, 95% or greater = low aggregation) | Aggregation ([2]; grade in words) | potency relative to SN38 as a cytotoxin (a variety of cell lines) | potency relative to SN38 at stabilizing the topo I/DNA complex (topo I/DNA complex)
CC[C@@]1(O)C(=O)OCc2c1cc1n(c2=O)Cc2c-1nc1cc(F)c(C)c3c1c2[C@@H](NC(=O)OCc1ccc(NC(=O)[C@H](C)NC(=O)[C@@H](NC(=O)CNC(=O)CNC(=O)CNC(=O)CNC(=O)CNC(=O)CCN2C(=O)C=CC2=O)C(C)C)cc1)CC3 [Mal-Gly5-VA-PABC-Exatecan] ({Propanoyl(3-maleimido)}-GGGGGVA[PABC]-Exatecan) | 9.76 | (98%) | None | – | –
CC[C@@]1(O)C(=O)OCc2c1cc1n(c2=O)Cc2c-1nc1cc(F)c(C)c3c1c2[C@@H](N)CC3 [Exatecan] | – | – | – | about 2.5 fold | about 2.5 fold
